The compounds below were run against human NaV 1.8 (Homo sapiens, UniProt Q9Y5Y9) (assay: E-VIPR Assay Detecting and Measuring NaV Inhibition Properties). Settings: HEK cells expressing a truncated form of human NaV 1.8; compound number with "*": assay performed in the presence of human serum.
Format: cell-based
From the text: Sodium ion channels are voltage-dependent proteins that can be activated by inducing membrane voltage changes by applying electric fields. The electrical stimulation instrument and methods of use, referred to as E-VIPR, are described in International Publication No. WO 2002/008748 A3 and C.-J. Huang et al. Characterization of voltage-gated sodium channel blockers by electrical stimulation and fluorescence detection of membrane potential, 24 Nature Biotech. 439-46 (2006), both of which are incorporated by reference in their entirety. The instrument comprises a microtiter plate handler, an optical system for exciting the coumarin dye while simultaneously recording the coumarin and oxonol emissions, a waveform generator, a current- or voltage-controlled amplifier, and parallel electrode pairs that are inserted into assay plate wells. Under integrated computer control, this instrument passes user-programmed electrical stimulus protocols to cells within the wells of the microtiter plate.
16-20 hours prior to running the assay on E-VIPR, HEK cells expressing a truncated form of human NaV 1.8 with full channel activity were seeded into microtiter 384-well plates, pre-coated with matrigel, at a density of 25,000 cells per well. 2.5-5% KIR2.1 Bacmam virus was added to the final cell suspension before seeding into cell plates. HEK cells were grown in Dulbecco's Modified Eagle's Medium (DMEM) supplemented with 10% FBS (Fetal Bovine Serum, qualified; Sigma #F4135), 1% NEAA (Non-Essential Amino Acids, Gibco #11140), 1% HEPES (Gibco #15630), 1% Pen-Strep (Penicillin-Streptomycin; Gibco #15140) and 5 μg/ml Blasticidin (Gibco #R210-01). Cells were expanded in vented cap cell culture flasks, with 90-95% humidity and 5% CO2.
Reagents and Stock Solutions:
• 100 mg/mL Pluronic F-127 (Sigma #P2443), in dry DMSO • Compound Plates: Corning 384-well Polypropylene Round Bottom #3656 • Cell Plates: 384-well tissue culture treated plates (Greiner #781091-2B)
2.5-5% KIR 2.1 Bacmam virus (produced in-house), prepared as described in Section 3.3 of J. A. Fornwald et al., Gene Expression in Mammalian Cells Using BacMam, a Modified Baculovirus System, 1350 Methods in Molecular Biology 95-116 (2016), the entire contents of which are incorporated by reference. The concentration used can be dependent on viral titer of each batch.
5 mM DiSBAC6(3), a voltage sensitive oxonol acceptor (CAS number 169211-44-3; 5-[3-(1,3-dihexylhexahydro-4,6-dioxo-2-thioxo-5-pyrimidinyl)-2-propen-1-ylidene]-1,3-dihexyldihydro-2-thioxo-4,6(1H,5H)-pyrimidinedione), in dry DMSO. The preparation of DiSBAC6(3) is analogous to that of DiSBAC4(3) as described in Voltage Sensing by Fluorescence Resonance Energy Transfer in Single Cells, Gonzalez, J. E. and Tsien, R. Y. (1995) Biophys. J. 69, 1272-1280.
5 mM CC2-DMPE, a commercially available membrane-bound coumarin phospholipid FRET donor (ThermoFisher Scientific catalog number K1017, CAS number 393782-57-5; tetradecanoic acid, 1,1′-[(1R)-1-[8-(6-chloro-7-hydroxy-2-oxo-2H-1-benzopyran-3-yl)-3-hydroxy-3-oxido-8-oxo-2,4-dioxa-7-aza-3-phosphaoct-1-yl]-1,2-ethanediyl] ester) was prepared in dry DMSO. See also, Improved indicators of cell membrane potential that use fluorescence resonance energy transfer, Gonzalez, J. E. and Tsien, R. Y. (1997) Chem. Biol. 4, 269-277.
Voltage Assay Background Suppression Compound (VABSC-1) is prepared in H2O (89-363 mM, range used to maintain solubility)
Human Serum (HS, Millipore #S1P1-01KL, or Sigma SLBR5469V and SLBR5470V as a 50%/50% mixture, for 25% assay final concentration)
• Sodium Chloride 160 mM (9.35 g/L), Potassium Chloride, 4.5 mM (0.335 g/L), Glucose 10 mM (1.8 g/L), Magnesium Chloride (Anhydrous) 1 mM (0.095 g/L), Calcium Chloride 2 mM (0.222 g/L), HEPES 10 mM (2.38 g/L) in water. […]

Sequence of human NaV 1.8 (Q9Y5Y9 126-1722 limits assumed): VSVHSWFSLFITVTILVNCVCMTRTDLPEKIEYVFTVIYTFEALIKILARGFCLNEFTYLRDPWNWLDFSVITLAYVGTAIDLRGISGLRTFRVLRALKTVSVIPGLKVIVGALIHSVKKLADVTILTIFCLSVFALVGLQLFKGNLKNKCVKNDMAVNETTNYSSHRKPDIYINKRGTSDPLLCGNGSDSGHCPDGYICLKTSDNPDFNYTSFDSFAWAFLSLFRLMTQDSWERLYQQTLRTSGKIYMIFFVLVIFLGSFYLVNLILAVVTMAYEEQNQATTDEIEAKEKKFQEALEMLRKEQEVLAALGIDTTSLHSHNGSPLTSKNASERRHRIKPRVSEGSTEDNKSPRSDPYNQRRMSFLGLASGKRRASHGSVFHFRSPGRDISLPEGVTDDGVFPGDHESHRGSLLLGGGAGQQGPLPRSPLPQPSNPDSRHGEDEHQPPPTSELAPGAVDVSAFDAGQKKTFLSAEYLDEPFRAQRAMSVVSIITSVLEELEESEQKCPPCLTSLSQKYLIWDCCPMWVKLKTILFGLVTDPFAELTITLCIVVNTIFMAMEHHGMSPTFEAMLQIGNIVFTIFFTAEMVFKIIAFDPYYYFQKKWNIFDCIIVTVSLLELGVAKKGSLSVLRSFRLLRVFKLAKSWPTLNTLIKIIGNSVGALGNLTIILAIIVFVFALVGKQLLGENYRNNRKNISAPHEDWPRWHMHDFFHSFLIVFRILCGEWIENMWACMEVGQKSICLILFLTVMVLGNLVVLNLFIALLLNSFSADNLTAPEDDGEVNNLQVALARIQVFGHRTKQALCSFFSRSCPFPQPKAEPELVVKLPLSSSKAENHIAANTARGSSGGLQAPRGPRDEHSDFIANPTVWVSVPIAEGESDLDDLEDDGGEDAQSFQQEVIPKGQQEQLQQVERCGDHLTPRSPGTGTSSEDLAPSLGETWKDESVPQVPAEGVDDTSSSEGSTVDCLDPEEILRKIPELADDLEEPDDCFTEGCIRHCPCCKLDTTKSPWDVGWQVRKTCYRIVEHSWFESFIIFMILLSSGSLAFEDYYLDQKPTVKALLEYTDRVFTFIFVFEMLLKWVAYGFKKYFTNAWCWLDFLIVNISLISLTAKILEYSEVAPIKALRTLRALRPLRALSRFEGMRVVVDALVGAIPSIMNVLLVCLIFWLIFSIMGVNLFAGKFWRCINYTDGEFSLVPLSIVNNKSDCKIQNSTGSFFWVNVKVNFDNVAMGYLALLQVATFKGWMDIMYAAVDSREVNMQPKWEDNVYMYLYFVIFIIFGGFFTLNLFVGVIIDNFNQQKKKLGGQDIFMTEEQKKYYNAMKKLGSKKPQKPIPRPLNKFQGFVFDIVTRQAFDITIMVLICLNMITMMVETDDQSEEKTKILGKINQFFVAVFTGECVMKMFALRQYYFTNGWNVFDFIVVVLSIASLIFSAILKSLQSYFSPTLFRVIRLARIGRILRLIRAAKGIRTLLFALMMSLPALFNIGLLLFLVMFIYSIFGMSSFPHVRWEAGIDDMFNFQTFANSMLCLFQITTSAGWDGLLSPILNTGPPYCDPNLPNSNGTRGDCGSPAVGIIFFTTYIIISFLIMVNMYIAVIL

Structure (SMILES)	IC50 [µM]
COc1c([C@@H]2[C@H](OC)[C@H](C)O[C@H]2C(=O)Nc2ccnc([C@@H](O)CO)c2)ccc(F)c1F (single isomer, unassigned) [Compound 9, rel-(2R*,3R*,4S*,5S*)-3-(3,4-difluoro-2-methoxyphenyl)-N-(2-(1,2-dihydroxyethyl)pyridin-4-yl)-4-methoxy-5-methyltetrahydrofuran-2-carboxamide]	≥ 1
COc1c([C@@H]2[C@H](OC)[C@H](C)O[C@H]2C(=O)Nc2ccnc([C@](C)(O)CO)c2)ccc(F)c1F (single isomer, unassigned) [Compound 12, rel-(2R*,3R*,4S*,5S*)-3-(3,4-difluoro-2-methoxyphenyl)-N-(2-(1,2-dihydroxypropan-2-yl)pyridin-4-yl)-4-methoxy-5-methyltetrahydrofuran-2-carboxamide]	≥ 1
COc1c([C@@H]2[C@@H](C(=O)Nc3ccnc([C@H](O)CO)c3)OC(C)(C)[C@@H]2OC)ccc(F)c1F (single isomer, unassigned) [Compound 23]	≥ 1
COc1c([C@H]2[C@H](C(=O)Nc3ccnc([C@@H](O)CO)c3)OC(C)(C)[C@H]2OC)ccc(F)c1F (single isomer, unassigned) [Compound 20]	0.1 to 1
COc1c([C@@H]2[C@H](OC)[C@H](C)O[C@H]2C(=O)Nc2ccnc([C@@](C)(O)CO)c2)ccc(F)c1F (single isomer, unassigned) [Compound 11, rel-(2R*,3R*,4S*,5S*)-3-(3,4-difluoro-2-methoxyphenyl)-N-(2-(1,2-dihydroxypropan-2-yl)pyridin-4-yl)-4-methoxy-5-methyltetrahydrofuran-2-carboxamide]	≥ 1
COc1c([C@@H]2[C@H](OC)[C@H](C)O[C@H]2C(=O)Nc2ccnc([C@H](O)CO)c2)ccc(F)c1F (single isomer, unassigned) [Compound 10, rel-(2R*,3R*,4S*,5S*)-3-(3,4-difluoro-2-methoxyphenyl)-N-(2-(1,2-dihydroxyethyl)pyridin-4-yl)-4-methoxy-5-methyltetrahydrofuran-2-carboxamide]	≥ 1
COc1c([C@H]2[C@H](C(=O)Nc3ccnc([C@H](O)CO)c3)OC(C)(C)[C@H]2OC)ccc(F)c1F (single isomer, unassigned) [Compound 22]	0.1 to 1

Same assay, conditions: HEK cells expressing a truncated form of human NaV 1.8; compound number without "*" (not marked as run in the presence of human serum)

Structure (SMILES)	IC50 [µM]
COc1c([C@H]2[C@H](C(=O)Nc3ccc([C@@H](O)CO)nc3)O[C@@](C)(C(F)(F)F)[C@H]2OC)ccc(F)c1C [Compound 6, (2R,3R,4S,5R)-N-(6-((R)-1,2-dihydroxyethyl)pyridin-3-yl)-3-(4-fluoro-2-methoxy-3-methylphenyl)-4-methoxy-5-methyl-5-(trifluoromethyl)tetrahydrofuran-2-carboxamide]	0.01 to 0.1
COc1c([C@@H]2[C@H](OC)[C@H](C)O[C@H]2C(=O)Nc2ccnc(C(N)=O)c2)ccc(F)c1F [Compound 8, 4-((2R,3R,4S,5S)-3-(3,4-difluoro-2-methoxyphenyl)-4-methoxy-5-methyltetrahydrofuran-2-carboxamido)picolinamide]	0.1 to 1
COc1c([C@@H]2[C@H](OC(C)C)[C@H](C)O[C@H]2C(=O)Nc2ccc(CO)nc2)ccc(F)c1F [Compound 17, (2R,3R,4S,5S)-3-(3,4-difluoro-2-methoxyphenyl)-N-(6-(hydroxymethyl)pyridin-3-yl)-4-isopropoxy-5-methyltetrahydrofuran-2-carboxamide]	≥ 1
COc1c([C@@H]2[C@H](OC(C)C)[C@H](C)O[C@H]2C(=O)Nc2ccc([C@@H](O)CO)nc2)ccc(F)c1F [Compound 16, (2R,3R,4S,5S)-3-(3,4-difluoro-2-methoxyphenyl)-N-(6-((R)-1,2-dihydroxyethyl)pyridine-3-yl)-4-isopropoxy-5-methyltetrahydrofuran-2-carboxamide]	≥ 1
COc1c([C@H]2[C@H](C(=O)Nc3ccnc(C(N)=O)c3)O[C@@](C)(C(F)(F)F)[C@H]2OC)ccc(F)c1F [Compound 1, 4-((2R,3R,4S,5R)-3-(3,4-difluoro-2-methoxyphenyl)-4-methoxy-5-methyl-5-(trifluoromethyl)tetrahydrofuran-2-carboxamido)picolinamide]	< 0.01
COc1c([C@H]2[C@H](C(=O)Nc3ccnc(C(N)=O)c3)OC(C)(C)[C@H]2OC)ccc(F)c1F (stereo in doubt) [Compound 18, rel-4-((2R,3R,4S)-3-(3,4-difluoro-2-methoxyphenyl)-4-methoxy-5,5-dimethyltetrahydrofuran-2-carboxamido)picolinamide]	0.01 to 0.1
COc1c([C@@H]2[C@H](OC(C)C)[C@H](C)O[C@H]2C(=O)Nc2ccnc(C(N)=O)c2)ccc(F)c1F [Compound 14, 4-((2R,3R,4S,5S)-3-(3,4-difluoro-2-methoxyphenyl)-4-isopropoxy-5-methyltetrahydrofuran-2-carboxamido)picolinamide]	0.1 to 1
COc1c([C@@H]2[C@H](OC(C)C)[C@H](C)O[C@H]2C(=O)Nc2ccc(C(N)=O)nc2)ccc(F)c1F [Compound 15, 5-((2R,3R,4S,5S)-3-(3,4-difluoro-2-methoxyphenyl)-4-isopropoxy-5-methyltetrahydrofuran-2-carboxamido)picolinamide]	≥ 1
COc1c([C@@H]2[C@H](OC)[C@H](C(C)C)O[C@H]2C(=O)Nc2ccnc(C(N)=O)c2)ccc(F)c1F [Compound 24, 4-((2R,3R,4S,5S)-3-(3,4-difluoro-2-methoxyphenyl)-5-isopropyl-4-methoxytetrahydrofuran-2-carboxamido)picolinamide]	< 0.01
COc1c([C@H]2[C@H](C(=O)Nc3ccnc(C(N)=O)c3)O[C@@](C)(C(F)(F)F)[C@H]2OC)ccc(F)c1C [Compound 5, 4-((2R,3R,4S,5R)-3-(4-fluoro-2-methoxy-3-methylphenyl)-4-methoxy-5-methyl-5-(trifluoromethyl)tetrahydrofuran-2-carboxamido)picolinamide]	< 0.01
COc1c([C@H]2[C@H](C(=O)Nc3ccnnc3)O[C@@](C)(C(F)(F)F)[C@H]2OC)ccc(F)c1C [Compound 4, (2R,3R,4S,5R)-3-(4-fluoro-2-methoxy-3-methylphenyl)-4-methoxy-5-methyl-N-(pyridazin-4-yl)-5-(trifluoromethyl)tetrahydrofuran-2-carboxamide]	< 0.01
COc1c([C@H]2[C@H](C(=O)Nc3ccnc(C(N)=O)c3)O[C@@](C)(C(F)(F)F)[C@H]2O)ccc(F)c1F [Compound 2, 4-((2R,3R,4S,5R)-3-(3,4-difluoro-2-methoxyphenyl)-4-hydroxy-5-methyl-5-(trifluoromethyl)tetrahydrofuran-2-carboxamido)picolinamide]	0.1 to 1
COc1c([C@H]2[C@H](C(=O)Nc3ccnnc3)O[C@@](C)(C(F)(F)F)[C@H]2O)ccc(F)c1F [Compound 3, (2R,3R,4S,5R)-3-(3,4-difluoro-2-methoxyphenyl)-4-hydroxy-5-methyl-N-(pyridazin-4-yl)-5-(trifluoromethyl)tetrahydrofuran-2-carboxamide]	≥ 1
CCO[C@H]1[C@@H](c2ccc(F)c(F)c2OC)[C@H](C(=O)Nc2ccnc(C(N)=O)c2)O[C@H]1C [Compound 13, 4-((2R,3R,4S,5S)-3-(3,4-difluoro-2-methoxyphenyl)-4-ethoxy-5-methyltetrahydrofuran-2-carboxamido)picolinamide]	0.1 to 1
